Here are results for 19 compounds from patent US10377770B2 (Novartis AG, priority 2015, dated 2019).

This assay concerns the target C-Raf FL (full length CRAF with Y340E and Y341E activating mutations, co-expressed with h14-3-3 zeta) (Homo sapiens (Human), UniProt P04049, Y340E/Y341E). In words: In vitro Raf activity determination, AlphaScreen p-MEK readout, c-Raf (C-Raf FL). The class given is biochemical. As to conditions: c-Raf approximately 4 nM, ATP 1 μM, pre-incubation 60 minutes, reaction 1 hour. An outline of the steps:
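Full-length C-Raf (~4 nM) pre-incubated 60 min at room temperature with compound and kinase-dead biotinylated MEK1 (~10 nM) in Tris pH 7.5, 15 mM MgCl2, BSA, DTT. Reaction started with 1 μM ATP and run 1 h at room temperature. Phospho-MEK detected by AlphaScreen with anti-p-MEK antibody.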
For orientation: Bead proximity is the source of the signal in Alpha formats.

The term IC50 denotes the concentration that inhibits the measured activity by half. As to `CCN1C(=O)[C@@H]2COCC[C@H]2c2cc(-c3cc(NC(=O)c4ccnc(C(F)(F)F)c4)ccc3C)cnc21` [Example 311, N-(3-((4aS, 10bR)-6-ethyl-5-oxo-1,4,4a,5,6,10b-hexahydro-2H-pyrano[3,4 - c][1,8]naphthyridin-9-yl)-4-methylphenyl)-2-(trifluoromethyl) isonicotinamide], inhibition was half-maximal at 100 pM (IC50). In the case of `Cc1ccc(NC(=O)c2cncc(C(F)(F)F)c2)cc1-c1cc2c(cc1F)C[C@@](F)(CO)[C@H]1COCCN21` [Example 489, N-(3-((4aR,5S)-5,8-difluoro-5-(hydroxymethyl)-1,2,4,4a,5,6-hexahydro-[1,4]oxazino[4,3-a]quinolin-9-yl)-4-methylphenyl)-5-(trifluoromethyl) nicotinamide] it was 400 pM; in that of `Cc1ccc(NC(=O)c2ccnc(C(C)(F)F)c2)cc1-c1cc(F)c2c(c1)N1CCOC[C@@H]1[C@@](F)(CO)C2` [Example 425, N-(3-((4aR,5R)-5,7-difluoro-5-(hydroxymethyl)-1,2,4,4a,5,6-hexahydro-[1,4]oxazino[4,3-a]quinolin-9-yl)-4-methylphenyl)-2-(1,1-difluoroethyl)isonicotinamide], 400 pM; in that of `Cc1ccc(NC(=O)c2ccnc(C(C)(F)F)c2)cc1-c1cc2c(cc1F)C[C@@](F)(CO)[C@@H]1COCCN21` [Example 481, N-(3-((4aS,5S)-5,8-difluoro-5-(hydroxymethyl)-1,2,4,4a,5,6-hexahydro-[1,4]oxazino[4,3-a]quinolin-9-yl)-4-methylphenyl)-2-(1,1-difluoroethyl)iso-nicotinamide], 1100 pM. In the case of `Cc1ccc(NC(=O)c2ccnc(C(C)(F)F)c2)cc1-c1ccc2c(c1)N1CCOC[C@H]1[C@@](C)(N)C2` (racemic) [Example 93, (rac)-(anti)-N-(3-(5-amino-5-methyl-1,2,4,4a,5,6-hexahydro-[1,4]oxazino[4,3-a]quinolin-9-yl)-4-methylphenyl)-2-(1,1-difluoroethyl)isonicotinamide], half-maximal inhibition (IC50) was put at 25 pM. In the case of `CCN1C(=O)C[C@H]2COCCN2c2cc(-c3cc(NC(=O)c4ccnc(C(F)(F)F)c4)ccc3C)cnc21` [Example 130, (S)-N-(3-(7-ethyl-6-oxo-1,2,4a,5,6,7-hexahydro-4H-[1,4]oxazino[4,3-d]pyrido[2,3-b][1,4]diazepin-10-yl)-4-methylphenyl)-2-(trifluoromethyl)isonicotinamide] it was 370 pM; in that of `CCN1C[C@@H]2COCCN2c2cc(-c3cc(NC(=O)c4ccnc(C(F)(F)F)c4)ccc3C)cnc2C1=O` [Example 500, (R)-N-(3-(6-ethyl-7-oxo-1,2,4a,5,6,7-hexahydro-4H-[1,4]oxazino[4,3-a]pyrido[2,3-f][1,4]diazepin-10-yl)-4-methylphenyl)-2-(trifluoromethyl)iso-nicotinamide], 100 pM; in that of “(R)-2-(1,1- difluoroethyl)-3- fluoro-N-(3-(7-(2- hydroxyethyl)-6- oxo-2,4,4a,5,6,7- hexahydro-1H- [1,4]oxazino[4,3- d]pyrido[2,3- b][1,4]diazepin-10- yl)-4- methylphenyl) isonicotinamide [Example 308]”, 700 pM. In the case of `Cc1ncc(NC(=O)c2cccc(C(C)(F)F)c2)cc1-c1ccc2c(c1)N1CCOC[C@@H]1[C@@](F)(CO)C2` [Example 368, 3-(1,1-difluoroethyl)-N-(5-((4aR,5R)-5-fluoro-5-(hydroxymethyl)-1,2,4,4a,5,6-hexahydro-[1,4]oxazino[4,3-a]quinolin-9-yl)-6-methylpyridin-3-yl)benzamide] it was 100 pM; in that of `Cc1ncc(NC(=O)c2cccc(C(F)(F)F)c2)cc1-c1cc2c(cc1F)C[C@@](F)(CO)[C@@H]1COCCN21` [Example 484, N-(5-((4aS,5S)-5,8-difluoro-5-(hydroxymethyl)-1,2,4,4a,5,6-hexahydro-[1,4]oxazino[4,3-a]quinolin-9-yl)-6-methylpyridin-3-yl)-3-(trifluoromethyl) benzamide], 4100 pM. In the case of `CCN1C(=O)C2CCOCCC2c2cc(-c3cc(NC(=O)c4ccnc(C(F)(F)F)c4)ccc3C)cnc21` (stereo not drawn) [Example 249, N-(3-((5a, 11b- trans)-7-ethyl-6-oxo-1,2,4,5,5a,6,7,11boctahydrooxepino [4,5-c][1,8]naphthyridin-4,5-10-yl)-4-methylphenyl)-2-(trifluoromethyl) isonicotinamide] it was 100 pM. In turn, `Cc1ncc(NC(=O)c2ccnc(C(C)(F)F)c2)cc1-c1ccc2c(c1)N1CCOC[C@H]1[C@](F)(CF)C2` [Example 467] returned a half-maximal inhibitory concentration (IC50) of 1900 pM.

The compound `CCN1C[C@@H]2COCC[C@H]2c2cc(-c3cc(NC(=O)c4cccc(C(F)(F)F)c4F)cnc3C)cnc21` [Example 294, N-(5-((4aR, 10bR)-6-ethyl-2,4,4a,5,6,10b-hexahydro-1H-pyrano[3,4-c][1,8]naphthyridin-9-yl)-6-methylpyridin-3-yl)-2-fluoro-3-(trifluoromethyl) benzamide] returned an IC50 of 100 pM. This IC50 lies about 19-fold lower than the previous one. To `Cc1ccc(NC(=O)c2cnnc(C(F)(F)F)c2)cc1-c1cnc2c(c1)N1CCOC[C@H]1CC(=O)N2CCO` [Example 323, (R)-N-(3-(7-(2-hydroxyethyl)-6-oxo-2,4,4a,5,6,7-hexahydro-1H-[1,4]oxazino[4,3-d]pyrido[2,3-b][1,4]diazepin-10-yl)-4-methylphenyl)-6-(trifluoromethyl) pyridazine-4-carboxamide] belongs 200 pM; to `CCN1C(=O)[C@H]2[C@@H]3COC[C@@H]3[C@H]2c2cc(-c3cc(NC(=O)c4ccnc(C(F)(F)F)c4)ccc3C)cnc21` [Example 270, N-(3-((6aR, 6bR, 9aR, 9bR)-5-ethyl-6-oxo-5,6,6a,6b,7,9,9a,9b-octahydrofuro[3′,4′: 3,4]cyclobuta[1,2-c][1,8]naphthyridin-2-yl)-4-methylphenyl)-2-(trifluoromethyl) isonicotinamide], 200 pM.

The compound `CCN1C(=O)N2COCCC2(C)c2cc(-c3cc(NC(=O)c4ccnc(C(F)(F)F)c4)ccc3C)ccc21` (stereo not shown) [Example 244, N-(3-(7-ethyl-11b-methyl-6-oxo-1,2,4,6,7,11b-hexahydro-[1,3]oxazino[3,4-c]quinazolin-10-yl)-4-methylphenyl)-2-(trifluoromethyl) isonicotinamide] registered a 50% inhibitory concentration (IC50) of 100 pM. In the case of `Cc1ccc(NC(=O)c2ccnc(C(C)(C)F)c2)cc1-c1cc2c(cc1F)C[C@@](F)(CO)[C@@H]1COCCN21` [Example 483, N-(3-((4aS,5S)-5,8-difluoro-5-(hydroxymethyl)-1,2,4,4a,5,6-hexahydro-[1,4]oxazino[4,3-a]quinolin-9-yl)-4-methylphenyl)-2-(2-fluoropropan-2-yl)isonicotinamide] it was 1000 pM; in that of `Cc1ncc(NC(=O)c2ccnc(C(C)(F)F)c2)cc1-c1ccc2c(c1)N1CCOC[C@H]1[C@H](C#N)C2` (racemic) [Example 91, (rac)-N-(5-(5-cyano-1,2,4,4a,5,6-hexahydro-[1,4]oxazino[4,3-a]quinolin-9-yl)-6-methylpyridin-3-yl)-2-(1,1-difluoroethyl)isonicotinamide], 76 pM. In the case of `Cc1ccc(NC(=O)c2ccnc(C(F)(F)F)c2)cc1-c1cnc2c(c1)N1CCOCC1C(CO)C2` (racemic) [Example 123, rac-cis-N-(3-(5-(hydroxymethyl)-1,2,4,4a,5,6-hexahydro-[1,4]oxazino[4,3-a][1,5]naphthyridin-9-yl)-4-methylphenyl)-2-(trifluoromethyl)isonicotinamide] it was 5.2 pM.
